Measurements taken from ChEMBL document CHEMBL4251711, “Bioactive Indolocarbazoles from the Marine-Derived Streptomyces sp. DT-A61” (J Nat Prod, 2018).

Tests used:
PC-3 = assay: Cytotoxicity against human PC3 cells after 72 hrs by SRB assay; type: functional, cell-based; details: PC-3, 72 h
[1] = target: Protein kinase C alpha type (Homo sapiens, UniProt P17252); assay: Inhibition of PKCalpha (unknown origin) by HTRF assay
[2] = target: Rho-associated protein kinase 2 (Homo sapiens, UniProt O75116); assay: Inhibition of ROCK2 (unknown origin) by HTRF assay
Sequence of Rho-associated protein kinase 2 (O75116 whole entry): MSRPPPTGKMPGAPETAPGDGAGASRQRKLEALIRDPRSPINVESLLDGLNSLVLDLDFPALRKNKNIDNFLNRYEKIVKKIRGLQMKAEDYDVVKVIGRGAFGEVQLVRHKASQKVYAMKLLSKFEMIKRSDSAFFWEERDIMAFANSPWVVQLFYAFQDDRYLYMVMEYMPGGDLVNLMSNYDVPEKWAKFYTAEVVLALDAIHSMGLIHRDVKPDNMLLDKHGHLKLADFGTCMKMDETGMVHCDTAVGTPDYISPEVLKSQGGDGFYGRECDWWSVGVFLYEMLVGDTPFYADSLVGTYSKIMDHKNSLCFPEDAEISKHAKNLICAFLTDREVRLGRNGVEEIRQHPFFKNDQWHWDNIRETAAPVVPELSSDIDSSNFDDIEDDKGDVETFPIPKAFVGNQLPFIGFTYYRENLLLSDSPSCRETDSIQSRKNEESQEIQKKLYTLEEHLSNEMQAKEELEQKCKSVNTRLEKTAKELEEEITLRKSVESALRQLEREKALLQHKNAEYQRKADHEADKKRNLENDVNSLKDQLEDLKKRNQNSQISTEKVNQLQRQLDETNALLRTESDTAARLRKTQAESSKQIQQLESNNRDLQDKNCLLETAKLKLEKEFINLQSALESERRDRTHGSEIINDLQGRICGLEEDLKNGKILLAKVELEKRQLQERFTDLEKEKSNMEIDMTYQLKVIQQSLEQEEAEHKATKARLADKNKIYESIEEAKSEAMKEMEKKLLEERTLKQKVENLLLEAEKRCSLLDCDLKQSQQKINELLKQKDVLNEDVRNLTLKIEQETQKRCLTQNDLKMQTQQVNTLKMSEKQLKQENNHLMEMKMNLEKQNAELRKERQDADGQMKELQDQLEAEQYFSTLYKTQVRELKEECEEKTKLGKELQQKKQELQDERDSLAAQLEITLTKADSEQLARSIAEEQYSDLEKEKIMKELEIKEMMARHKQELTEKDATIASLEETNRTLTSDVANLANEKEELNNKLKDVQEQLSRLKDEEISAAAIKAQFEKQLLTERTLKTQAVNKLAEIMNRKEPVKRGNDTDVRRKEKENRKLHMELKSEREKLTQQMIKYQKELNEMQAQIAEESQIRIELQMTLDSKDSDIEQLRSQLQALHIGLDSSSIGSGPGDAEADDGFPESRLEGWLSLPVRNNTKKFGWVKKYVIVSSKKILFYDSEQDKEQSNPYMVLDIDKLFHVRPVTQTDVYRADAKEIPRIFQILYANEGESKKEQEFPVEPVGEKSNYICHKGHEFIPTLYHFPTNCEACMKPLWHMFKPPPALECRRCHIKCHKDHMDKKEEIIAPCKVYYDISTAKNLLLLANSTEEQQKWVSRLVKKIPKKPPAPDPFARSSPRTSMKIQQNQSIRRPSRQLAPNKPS

[3] = target: T1, Mitogen-activated protein kinase kinase kinase 5 (Homo sapiens, UniProt Q99683); assay: Inhibition of ASK1 (unknown origin) by HTRF assay
T1 sequence (Q99683 whole entry): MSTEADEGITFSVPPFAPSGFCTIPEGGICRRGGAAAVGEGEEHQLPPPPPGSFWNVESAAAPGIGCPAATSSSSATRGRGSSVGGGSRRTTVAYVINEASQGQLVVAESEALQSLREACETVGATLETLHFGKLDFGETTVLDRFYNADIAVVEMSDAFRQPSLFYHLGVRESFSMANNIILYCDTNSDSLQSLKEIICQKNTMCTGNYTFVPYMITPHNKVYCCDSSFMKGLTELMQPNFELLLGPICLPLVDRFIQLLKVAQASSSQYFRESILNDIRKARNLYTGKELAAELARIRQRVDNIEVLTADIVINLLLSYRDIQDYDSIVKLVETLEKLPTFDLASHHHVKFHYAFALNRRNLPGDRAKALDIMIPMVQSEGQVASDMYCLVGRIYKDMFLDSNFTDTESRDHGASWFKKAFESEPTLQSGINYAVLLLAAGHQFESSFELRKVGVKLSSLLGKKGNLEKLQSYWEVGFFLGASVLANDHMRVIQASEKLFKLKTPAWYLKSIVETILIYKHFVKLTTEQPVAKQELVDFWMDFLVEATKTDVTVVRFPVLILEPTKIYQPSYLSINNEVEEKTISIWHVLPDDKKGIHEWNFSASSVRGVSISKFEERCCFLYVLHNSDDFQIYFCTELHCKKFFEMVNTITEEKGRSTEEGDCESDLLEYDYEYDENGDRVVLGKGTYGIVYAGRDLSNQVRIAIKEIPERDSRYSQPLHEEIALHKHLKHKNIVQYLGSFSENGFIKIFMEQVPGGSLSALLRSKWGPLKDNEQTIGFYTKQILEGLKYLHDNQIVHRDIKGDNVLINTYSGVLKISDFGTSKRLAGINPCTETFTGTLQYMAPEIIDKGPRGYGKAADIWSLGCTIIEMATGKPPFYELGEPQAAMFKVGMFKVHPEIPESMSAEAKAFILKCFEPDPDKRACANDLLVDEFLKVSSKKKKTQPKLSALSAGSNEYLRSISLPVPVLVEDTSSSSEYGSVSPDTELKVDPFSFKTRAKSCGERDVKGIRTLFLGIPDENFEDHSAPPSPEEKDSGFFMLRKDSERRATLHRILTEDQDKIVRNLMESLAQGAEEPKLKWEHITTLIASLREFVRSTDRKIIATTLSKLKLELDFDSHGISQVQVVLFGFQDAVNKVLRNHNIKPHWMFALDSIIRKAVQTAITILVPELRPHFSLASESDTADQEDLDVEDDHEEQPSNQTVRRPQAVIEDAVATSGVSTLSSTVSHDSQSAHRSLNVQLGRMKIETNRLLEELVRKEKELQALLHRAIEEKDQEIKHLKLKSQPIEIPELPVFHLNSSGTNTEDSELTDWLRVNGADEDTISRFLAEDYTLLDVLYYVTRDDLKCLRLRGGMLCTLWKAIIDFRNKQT

Compound | IC50 (PC-3) [nM] | IC50 [1] [nM] | IC50 [2] [nM] | IC50 [3] [nM]
CC(=O)N[C@H]1C[C@H]2O[C@@](C)([C@@H]1O)n1c3ccccc3c3c4c(c5c6ccccc6n2c5c31)C(=O)NC4 | 160 | 92 | 260 | 770
CC(=O)N[C@@H]1C[C@H](n2c3ccccc3c3c4c(c5c6cc(O)ccc6[nH]c5c32)CNC4=O)O[C@@H](C)[C@@H]1O |  | 97 | 1400 | > 50000
C[C@H]1O[C@@H]2C[C@](O)([C@H]1O)n1c3ccccc3c3c4c(c5c6cc(O)ccc6n2c5c31)C(=O)NC4 | 5600 | 1400 | 340 | > 50000
COC1NC(=O)c2c1c1c3ccccc3[nH]c1c1[nH]c3ccc(O)cc3c21 (stereo not given) | 18000 | 1400 | 910 | > 50000
O=C1NCc2c1c1c3ccccc3[nH]c1c1[nH]c3ccc(O)cc3c21 | 8000 | 980 | 340 | 740
CC(=O)N[C@@H]1C[C@H](n2c3ccc(O)cc3c3c4c(c5c6ccccc6[nH]c5c32)CNC4=O)O[C@@H](C)[C@@H]1O | 3600 | 460 | 40 | 6400
C[C@@H]1O[C@@H](n2c3ccc(O)cc3c3c4c(c5c6ccccc6[nH]c5c32)CNC4=O)C[C@@H](N)[C@H]1O | 3100 | 79 | 150 | 1100
C[C@@H]1O[C@@H]2C[C@](O)([C@H]1O)n1c3ccccc3c3c4c(c5c6cc(O)ccc6n2c5c31)C(=O)NC4 | 39000 | 2100 | 970 | 4100
O=C1NCc2c1c1c3cc(O)ccc3[nH]c1c1[nH]c3ccccc3c21 | 21000 | 3200 | 5.7 | 3000
